Two compounds from US11950592B2, “Method for enhancing plant disease controlling effects of aryl phenyl ketone fungicide, and method for controlling plant diseases” (ISHIHARA SANGYO KAISHA, LTD., priority 2016, dated 2024) can be followed below.

Assay type in all cases: in vivo
Test [1] relates to Sphaerotheca fuliginea. Briefly: Test Example 9: curative effect against cucumber powdery mildew. The conditions noted are these: no addition. As for the experimental part:
(§1) Cucumber (cultivar: Sagamihanjiro Fushinari) was cultivated in a polyethylene pot having a diameter of 7.5 cm, and when the cucumber reached 1.5 leaf stage, the leaf adaxial surface was sprayed and inoculated with a suspension of conidia of Sphaerotheca fuliginea, the cucumber was cultivated in a room at 20° C. under the light for 3 days, and a chemical solution containing pyriofenone (dosage: 90 g ai/ha) or metrafenone (300 g ai/ha) prepared with an aqueous solution containing each product (0.005 to 1.0 v/v°/0) was applied (amount of solution applied: 800 L/ha) to the leaf adaxial surface by a spray gun. After the chemical solution dried, the cucumber was cultivated in a room at 20° C. under the light for 7 days. The lesion area ratio on the first leaf was examined, and the control value was calculated based on the following formula. Control value=(1−a/b)×100
(§2) a: lesion area ratio in treated plot, b: lesion area ratio in non-treated plot

In test [2] the test system is Sphaerotheca fuliginea. The experiment in a line: Test Example 6: curative effect against cucumber powdery mildew. The conditions noted are these: no addition. As for the experimental part:
as §1, with “product (0.01” for “product (0.005”, “to 5.0” for “to 1.0”, “for 6” for “for 7”
as §2

The subject of test [3] is Sphaerotheca fuliginea. Briefly: Test Example 5: curative effect against cucumber powdery mildew. To be noted: no addition. As for the experimental part:
as §1, with “(0.025” for “(0.005”, “4.0” for “1.0”
as §2

Test [4] concerns Sphaerotheca fuliginea. The experiment in a line: Test Example 8: curative effect against cucumber powdery mildew. To be noted: no addition. As for the experimental part:
as §1, with “(0.001” for “(0.005”, “5.0” for “1.0”
as §2

Test [5] deals with Sphaerotheca fuliginea. The experiment in a line: Test Example 7: curative effect against cucumber powdery mildew. The conditions noted are these: no addition. As for the experimental part:
as §1, with “product (0.02” for “product (0.005”, “to 0.07” for “to 1.0”, “for 5” for “for 7”
as §2

The subject of test [6] is Sphaerotheca fuliginea. Briefly: Test Example 4: curative effect against cucumber powdery mildew. To be noted: pyriofenone 90 g ai/ha, no addition. As for the experimental part: (§3) Cucumber (cultivar: Sagamihanjiro Fushinari) was cultivated in a polyethylene pot having a diameter of 7.5 cm, and when the cucumber reached 1.5 leaf stage, the leaf adaxial surface was sprayed and inoculated with a suspension of conidia of Sphaerotheca fuliginea, the cucumber was cultivated in a room at 20° C. under the light to for 3 days, and a chemical solution containing pyriofenone prepared with an aqueous solution containing each product (0.025 to 0.25 v/v°/0) was applied (dosage: 90 g ai/ha, amount of solution applied: 800 L/ha) to the leaf adaxial surface by a spray gun. After the chemical solution dried, the cucumber was cultivated in a greenhouse for 4 days and then cultivated in a room at 20° C. under the light for 5 days. The lesion area ratio on the first leaf was examined, and the control value was calculated based on the following formula. Control value=(1−a/b)×100
as §2

For test [7], the system named is Sphaerotheca fuliginea. Briefly: Test Example 12: curative effect against cucumber powdery mildew. To be noted: pyriofenone 90 g ai/ha, no addition. As for the experimental part: as §1, with “for 4” for “for 3”, “ai/ha)” for “ai/ha) or metrafenone (300 g ai/ha)”, “product (0.015” for “product (0.005”, “to 0.5 v/v %)” for “to 1.0 v/v°/0)”, “for 6” for “for 7”
as §2

Test [8] deals with Sphaerotheca fuliginea. Briefly: Test Example 2: curative effect against cucumber powdery mildew. To be noted: pyriofenone 90 g ai/ha, no addition. As for the experimental part:
Cucumber (cultivar: Sagamihanjiro Fushinari) was cultivated in a polyethylene pot having a diameter of 7.5 cm, and when the cucumber reached 1.5 leaf stage, the leaf adaxial surface was sprayed and inoculated with a suspension of conidia of Sphaerotheca fuliginea, the cucumber was cultivated in a room at 20° C. under the light for 3 days, and a chemical solution containing pyriofenone prepared with an aqueous solution containing each product (0.5 v/v°/0) was applied (dosage: 90 g ai/ha, amount of solution applied: 800 L/ha) to the leaf adaxial surface by a spray gun. After the chemical solution dried, the cucumber was cultivated in a room at 20° C. under the light for 6 days. The lesion area ratio on the adaxial surface of the first leaf was examined, and the control value was calculated based on the following formula. In Tables, “no addition” means the above treatment without adding the component (b) (the same applies hereinafter). Control value=(1−a/b)×100
as §2

The test system of test [9] is Oidiopsis sicula Scalia. Briefly: Test Example 11: curative effect against sweet pepper powdery mildew. The conditions noted are these: no addition. The text has this:
Sweet pepper (cultivar: Kyonami) was cultivated in a polyethylene pot having a diameter of 7.5 cm, and when the sweet pepper reached 8.5 leaf stage, the sweet pepper was dusted and inoculated with a suspension of conidia of Oidiopsis sicula Scalia, the sweet pepper was cultivated in a greenhouse under the light for 3 days, and a chemical solution containing pyriofenone (dosage: 90 g or 110 g ai/ha) prepared with an aqueous solution containing each product (0.07 to 4.0 v/v %) was applied (amount of solution applied: 600 L/ha) to the leaf adaxial surface by a spray gun. After the chemical solution dried, the cucumber was cultivated in a greenhouse under the light for 17 days. Each of eight lower leaves was investigated, and the disease severity was calculated in accordance with the following index. Further, the control value was calculated from the disease severity.
Disease index 0: No spore formation
Disease index 1: Formation of lesion (spores, foot cells, conidiogenous cells) is observed on the leaf abaxial side with an area of less than 10%.
Disease index 2: Formation of lesion (spores, foot cells, conidiogenous cells) is observed on the leaf abaxial side with an area of from 10% to 25%.
Disease index 3: Formation of lesion (spores, foot cells, conidiogenous cells) is observed on the leaf abaxial side with an area of from 26% to 50%. […]

For test [10], the system named is Sphaerotheca fuliginea. The experiment in a line: Test Example 1: curative effect against cucumber powdery mildew with different temperatures. The conditions noted are these: pyriofenone 90 g ai/ha, no component (b). As for the experimental part:
Cucumber (cultivar: Sagamihanjiro Fushinari) was cultivated in a polyethylene pot having a diameter of 7.5 cm, and when the cucumber reached 1.5 leaf stage, the leaf adaxial surface was sprayed and inoculated with a suspension of conidia of Sphaerotheca fuliginea, the cucumber was cultivated in a room at 20° C. or 28° C. under the light for 3 days, and a chemical solution containing pyriofenone was applied (dosage: 90 g ai/ha, amount of solution applied: 800 L/ha) to the leaf adaxial surface by a spray gun. After the chemical solution dried, the cucumber was cultivated in a room at 20° C. or 28° C. under the light for 6 days. The lesion area ratio on the adaxial surface of the first leaf was examined, and the control value was calculated based on the following formula. Control value=(1−a/b)×100
as §2

Test [11] relates to Sphaerotheca fuliginea. The experiment in a line: Test Example 13: penetration effect against cucumber powdery mildew. To be noted: pyriofenone 90 g ai/ha, no addition. As for the experimental part: (§4) Cucumber (cultivar: Sagamihanjiro Fushinari) was cultivated in a polyethylene pot having a diameter of 7.5 cm, and when the cucumber reached 1.5 leaf stage, a chemical solution containing pyriofenone (dosage: 90 g ai/ha) prepared with an aqueous solution containing each product (0.015 to 1.0 v/v°/0) was applied (amount of solution applied: 800 L/ha) to the leaf adaxial surface by a spray gun. After the chemical solution dried, the cucumber was cultivated in a room at 20° C. under the light for 3 days, the leaf abaxial surface was sprayed and inoculated with a suspension of conidia of Sphaerotheca fuliginea, and the cucumber was cultivated in a room at 20° C. under the light for 7 days. The lesion area ratio on the abaxial side of the first leaf was examined, and the control value was calculated based on the following formula. Control value=(1−a/b)×100
as §2

Test [12] deals with Sphaerotheca fuliginea. Briefly: Test Example 3: curative effect against cucumber powdery mildew. The conditions noted are these: pyriofenone 90 g ai/ha, no addition. As for the experimental part: as §3, with “light” for “light to”, “product (0.05” for “product (0.025”, “a” for “a greenhouse for 4 days and then cultivated in a”, “for 6” for “for 5”
as §2

Test [13] has as its system Sphaerotheca fuliginea. Briefly: Test Example 10: penetration effect against cucumber powdery mildew. The conditions noted are these: pyriofenone 90 g ai/ha, no addition. As for the experimental part:
as §4, with “to 4.0 v/v %)” for “to 1.0 v/v°/0)”, “for 4” for “for 3”, “for 8” for “for 7”
as §2

As to `COc1cc(C)c(C(=O)c2c(OC)ccc(Br)c2C)c(OC)c1OC` [Metrafenone, metrafenone], the “Control value Metrafenone” value in test [1] (metrafenone 300 g ai/ha) was found to be 75; in [2] (metrafenone 300 g ai/ha) it was 60.2; in [3] (metrafenone 300 g ai/ha) it was 65.7; in test [4] (metrafenone 300 g ai/ha), 60; in test [5] (metrafenone 300 g ai/ha) it was 65.

On to `COc1cc(C)c(C(=O)c2c(OC)ncc(Cl)c2C)c(OC)c1OC` [Pyriofenone, pyriofenone], for which the “Control value Pyriofenone” value in [1] (pyriofenone 90 g ai/ha) came to 70; in test [2] (pyriofenone 90 g ai/ha), 71.6; in test [3] (pyriofenone 90 g ai/ha), 63; in test [4] (pyriofenone 90 g ai/ha), 65; in test [5] (pyriofenone 90 g ai/ha), 65. Further, the Control value turned out to be 30 in test [6]; 68 in [7]; 55 in [8]; 53 in test [10] (20° C.); 80 in [10] (28° C.); 40 in test [11]. Moreover, the Control value was determined as 55 in test [12] and 12 in test [13]. Also, the “Control value Dosage (g ai/ha) 90” value in test [9] (pyriofenone 90 g ai/ha) came to 7.6. Further, the “Control value Dosage (g ai/ha) 110” value in test [9] (pyriofenone 110 g ai/ha) was determined as 6.1.
